Assay results published in ChEMBL document CHEMBL1133494, “Inhibitors of bacterial tyrosyl tRNA synthetase: synthesis of four stereoisomeric analogues of the natural product SB-219383” (Bioorg Med Chem Lett, 2000).

Columns and labels:
[1] = system: Tyrosyl-tRNA synthetase (Staphylococcus aureus); test: Inhibitory activity of compound against tyrosyl tRNA synthetase from Staphylococcus aureus was determined up to 3 uM; IA means Inactive
[2] = target: T1, Tyrosine--tRNA ligase, cytoplasmic (Homo sapiens) (UniProt P54577); test: Percentage inhibitory activity of compound against tyrosyl tRNA synthetase from mammalian cells was determined at 3 uM
T1 sequence (whole entry): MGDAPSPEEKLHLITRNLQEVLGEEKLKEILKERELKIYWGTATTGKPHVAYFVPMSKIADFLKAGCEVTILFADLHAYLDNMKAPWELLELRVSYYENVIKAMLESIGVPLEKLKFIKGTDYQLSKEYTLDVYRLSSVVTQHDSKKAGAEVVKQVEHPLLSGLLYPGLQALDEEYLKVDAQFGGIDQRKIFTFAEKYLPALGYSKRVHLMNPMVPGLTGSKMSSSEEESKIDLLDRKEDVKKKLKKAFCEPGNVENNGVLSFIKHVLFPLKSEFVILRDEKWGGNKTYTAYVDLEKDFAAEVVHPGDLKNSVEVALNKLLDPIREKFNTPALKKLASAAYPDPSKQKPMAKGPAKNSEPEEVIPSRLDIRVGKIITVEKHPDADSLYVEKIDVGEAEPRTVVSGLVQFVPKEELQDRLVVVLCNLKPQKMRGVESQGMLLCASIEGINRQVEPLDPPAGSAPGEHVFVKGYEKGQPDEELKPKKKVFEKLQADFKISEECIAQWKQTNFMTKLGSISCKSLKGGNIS

| IC50 [1] | inhibition [2] [%] | Compound |
| --- | --- | --- |
| Not Active | – | N[C@@H](Cc1ccc(O)cc1)C(=O)N[C@@H](C(=O)O)[C@@H]1[C@@H](O)[C@H](O)[C@H](O)CN1O |
| Not Active | – | N[C@@H](Cc1ccc(O)cc1)C(=O)N[C@H](C(=O)O)[C@@H]1[C@@H](O)[C@H](O)[C@H](O)CN1O |
| – | 11 | N[C@@H](Cc1ccc(O)cc1)C(=O)N[C@H](C(=O)O)[C@H]1[C@H](O)[C@@H](O)[C@@H](O)CN1O |
